Measured values reported in US10246453B2, “Benzenesulfonamide compounds and their use as therapeutic agents” (Xenon Pharmaceuticals Inc., priority 2016, dated 2019).

Tests used:
[1] = target: NaV1.1 (Homo sapiens (Human), UniProt P35498); experiment: Sodium Influx Assay (Flux), NaV1.1; type: cell-based; conditions: Trex HEK293 cells, ANG2 dye; arithmetic mean
[2] = target: NaV1.5 (Homo sapiens (Human), UniProt Q14524); experiment: Sodium Influx Assay (Flux), NaV1.5; conditions: read-out: Flux NaV1.5 IC50; Trex HEK293 cells, ANG2 dye; arithmetic mean
[3] = target: NaV1.6 (Homo sapiens (Human), UniProt Q9UQD0); experiment: Sodium Influx Assay (Flux), NaV1.6; conditions: read-out: Flux NaV1.6 IC50; Trex HEK293 cells, ANG2 dye; arithmetic mean

Chain of NaV1.5 (Q14524 other isoform, or with tags, fused parts or gaps): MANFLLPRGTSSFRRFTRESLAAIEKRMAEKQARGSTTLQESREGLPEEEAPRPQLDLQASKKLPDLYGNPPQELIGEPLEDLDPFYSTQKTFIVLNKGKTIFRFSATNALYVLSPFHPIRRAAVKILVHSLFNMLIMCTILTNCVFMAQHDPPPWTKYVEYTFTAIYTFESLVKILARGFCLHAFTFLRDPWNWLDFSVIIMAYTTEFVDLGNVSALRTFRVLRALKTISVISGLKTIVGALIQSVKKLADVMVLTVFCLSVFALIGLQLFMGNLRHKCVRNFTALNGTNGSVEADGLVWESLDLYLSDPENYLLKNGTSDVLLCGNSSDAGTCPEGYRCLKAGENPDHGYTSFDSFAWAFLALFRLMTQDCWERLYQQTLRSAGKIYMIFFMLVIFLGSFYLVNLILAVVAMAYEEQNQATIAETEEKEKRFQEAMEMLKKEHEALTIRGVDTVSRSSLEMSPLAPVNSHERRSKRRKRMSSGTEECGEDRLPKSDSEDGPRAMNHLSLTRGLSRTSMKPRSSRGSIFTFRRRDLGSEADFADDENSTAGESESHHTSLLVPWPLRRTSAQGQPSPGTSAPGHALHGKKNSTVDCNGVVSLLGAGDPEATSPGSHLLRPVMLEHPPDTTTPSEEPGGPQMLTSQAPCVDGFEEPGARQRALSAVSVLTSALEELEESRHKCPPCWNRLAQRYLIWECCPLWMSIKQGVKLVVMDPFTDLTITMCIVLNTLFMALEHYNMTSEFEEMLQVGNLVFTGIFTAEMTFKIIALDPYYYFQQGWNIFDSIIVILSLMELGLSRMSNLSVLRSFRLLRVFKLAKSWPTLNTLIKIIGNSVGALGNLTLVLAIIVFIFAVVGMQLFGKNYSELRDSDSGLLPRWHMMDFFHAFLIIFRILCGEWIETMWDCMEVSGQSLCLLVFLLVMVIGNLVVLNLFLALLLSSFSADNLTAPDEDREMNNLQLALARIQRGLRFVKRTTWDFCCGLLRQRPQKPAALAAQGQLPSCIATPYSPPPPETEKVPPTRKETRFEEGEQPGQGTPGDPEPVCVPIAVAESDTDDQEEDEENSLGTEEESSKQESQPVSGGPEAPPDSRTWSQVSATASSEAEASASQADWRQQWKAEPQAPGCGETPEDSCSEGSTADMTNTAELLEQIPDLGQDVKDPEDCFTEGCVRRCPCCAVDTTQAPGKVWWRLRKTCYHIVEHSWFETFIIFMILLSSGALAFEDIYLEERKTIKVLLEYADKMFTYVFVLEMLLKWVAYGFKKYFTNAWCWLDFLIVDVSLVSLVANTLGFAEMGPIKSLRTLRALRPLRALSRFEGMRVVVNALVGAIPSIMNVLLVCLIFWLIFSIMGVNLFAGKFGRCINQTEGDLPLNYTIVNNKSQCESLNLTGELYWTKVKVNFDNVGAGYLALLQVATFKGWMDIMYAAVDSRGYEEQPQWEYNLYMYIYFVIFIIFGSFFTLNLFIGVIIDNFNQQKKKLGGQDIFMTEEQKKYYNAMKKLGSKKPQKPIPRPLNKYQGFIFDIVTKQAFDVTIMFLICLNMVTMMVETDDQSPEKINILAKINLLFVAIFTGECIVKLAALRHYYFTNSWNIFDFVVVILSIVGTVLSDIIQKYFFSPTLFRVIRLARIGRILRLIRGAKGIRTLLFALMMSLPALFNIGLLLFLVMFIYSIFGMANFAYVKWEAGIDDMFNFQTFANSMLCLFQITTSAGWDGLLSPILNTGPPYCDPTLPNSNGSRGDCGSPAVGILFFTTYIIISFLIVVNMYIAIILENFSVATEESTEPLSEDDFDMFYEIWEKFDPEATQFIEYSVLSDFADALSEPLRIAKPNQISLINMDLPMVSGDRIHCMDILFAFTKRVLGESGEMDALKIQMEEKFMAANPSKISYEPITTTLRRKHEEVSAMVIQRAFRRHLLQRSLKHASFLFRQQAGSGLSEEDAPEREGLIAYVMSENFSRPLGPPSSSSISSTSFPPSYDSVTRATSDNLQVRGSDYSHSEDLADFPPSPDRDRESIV

Row | Structure (SMILES) | IC50 [1] [µM] | IC50 [3] [µM] | IC50 [2] [µM]
1 | Cc1c(NC2(C)CN(Cc3ccccc3)C2)cc(F)c(S(=O)(=O)Nc2cscn2)c1F [Example 233, 4-((1-benzyl-3-methylazetidin-3-yl)amino)-2,6-difluoro-3-methyl-N-(thiazol-4-yl)benzenesulfonamide 2,2,2-trifluoroacetate] | 6.02 | 0.375 | 27.3
2 | CN(c1cc(F)c(S(=O)(=O)Nc2cscn2)cc1Cl)[C@H]1CCN(Cc2cccn2C)C1 [Example 181, (S)-5-chloro-2-fluoro-4-(methyl(1-((1-methyl-1H-pyrrol-2-yl)methyl)pyrrolidin-3-yl)amino)-N-(thiazol-4-yl)benzene-sulfonamide] | > 30 | 3.15 | > 30
3 | Cc1ccc(F)c(CN2CC[C@H](N(C)c3ccc(S(=O)(=O)Nc4ncns4)cc3Cl)C2)c1 [Example 35, (S)-3-chloro-4-((1-(2-fluoro-5-methylbenzyl)pyrrolidin-3-yl)(methyl)amino)-N-(1,2,4-thiadiazol-5-yl)benzenesulfonamide] | 15.9 | 0.021 | > 30
4 | Cc1cc(S(=O)(=O)Nc2cscn2)c(F)cc1N(C)[C@H]1CCN(Cc2nccs2)C1 [Example 136, (S)-2-fluoro-5-methyl-4-(methyl(1-(thiazol-2-ylmethyl)pyrrolidin-3-yl)amino)-N-(thiazol-4-yl)benzenesulfonamide] | > 30 | 6.79 | > 30
5 | Cc1cc(S(=O)(=O)Nc2cscn2)c(F)cc1OC1CCN(Cc2ccccc2)CC1 [Example 239, 4-((1-benzylpiperidin-4-yl)oxy)-2-fluoro-5-methyl-N-(thiazol-4-yl)benzenesulfonamide] | 27 | 0.708 | 16.5
6 | O=S(=O)(Nc1nccs1)c1ccc(OC2CCN(CCc3ccccc3)CC2)c(Cl)c1 [Example 234, 3-chloro-4-((1-phenethylpiperidin-4-yl)oxy)-N-(thiazol-2-yl)benzenesulfonamide] | 6.87 | 1.42 | 20.7
7 | Cc1c(N(C)[C@H]2CCN(Cc3cc(F)ccc3F)C2)ccc(S(=O)(=O)Nc2cscn2)c1F [Example 322, (S)-4-((1-(2,5-difluorobenzyl)-pyrrolidin-3-yl)(methyl)amino)-2-fluoro-3-methyl-N-(thiazol-4-yl)benzenesulfonamide 2,2,2-trifluoroacetate] | 6.02 | 0.237 | 7.35

Further lines, with some results ahead:

Row | IC50 [1] [µM] | IC50 [3] [µM] | Structure (SMILES) | IC50 [2] [µM]
8 | 4.41 | 1.09 | CN(c1cc(F)c(S(=O)(=O)Nc2cscn2)cc1Cl)[C@H]1CCN(Cc2cccc(Cl)c2)C1 [Example 208, (S)-5-chloro-4-((1-(3-chlorobenzyl)pyrrolidin-3-yl)(methyl)amino)-2-fluoro-N-(thiazol-4-yl)benzenesulfonamide] | 5.69
9 | 7.48 | 4 | Cc1cc(S(=O)(=O)Nc2cscn2)c(F)cc1N(C)[C@H]1CCN(CC2CCCCC2)C1 [Example 123, (S)-4-((1-(cyclohexylmethyl)-pyrrolidin-3-yl)(methyl)amino)-2-fluoro-5-methyl-N-(thiazol-4-yl)benzenesulfonamide] | > 30
10 | 4.97 | 4.62 | CN(c1cc(F)c(S(=O)(=O)Nc2cscn2)cc1Cl)[C@H]1CCN(CCOCc2ccccc2)C1 [Example 200, (S)-4-((1-(2-(benzyloxy)ethyl)pyrrolidin-3-yl)(methyl)amino)-5-chloro-2-fluoro-N-(thiazol-4-yl)benzenesulfonamide] | 7.21
11 | 19.2 | 3.27 | CN(c1cc(F)c(S(=O)(=O)Nc2cscn2)cc1Cl)[C@H]1CCN(Cc2cccc3ccncc23)C1 [Example 186, (S)-5-chloro-2-fluoro-4-((1-(isoquinolin-8-ylmethyl)pyrrolidin-3-yl)(methyl)amino)-N-(thiazol-4-yl)benzene-sulfonamide 2,2,2-trifluoroacetate] | 20.1
